In ChEMBL document CHEMBL2434905, “2-Amino-6-chloro-3,4-dihydroquinazoline: A novel 5-HT3 receptor antagonist with antidepressant character” (Bioorg Med Chem Lett, 2013):

Assays:
[1] = target: 5-hydroxytryptamine receptor 5A (Homo sapiens, UniProt P47898); assay: Displacement of [3H]LSD from human recombinant 5-HT5A receptor expressed in CHO cells after 90 mins by scintillation counting analysis; format: cell-based
[2] = target: 5-hydroxytryptamine receptor 7 (Homo sapiens, UniProt P34969); assay: Displacement of [3H]LSD from human recombinant 5-HT7 receptor expressed in HEK cells after 90 mins by scintillation counting analysis; format: cell-based, HEK293
[3] = target: T1, 5-hydroxytryptamine receptor 3A (Homo sapiens, UniProt P46098); assay: Displacement of [3H]GR65630 from human 5-HT3 receptor expressed in African green monkey COS cells after 90 mins by scintillation counting analysis; format: cell-based
T1 sequence (P46098 whole entry): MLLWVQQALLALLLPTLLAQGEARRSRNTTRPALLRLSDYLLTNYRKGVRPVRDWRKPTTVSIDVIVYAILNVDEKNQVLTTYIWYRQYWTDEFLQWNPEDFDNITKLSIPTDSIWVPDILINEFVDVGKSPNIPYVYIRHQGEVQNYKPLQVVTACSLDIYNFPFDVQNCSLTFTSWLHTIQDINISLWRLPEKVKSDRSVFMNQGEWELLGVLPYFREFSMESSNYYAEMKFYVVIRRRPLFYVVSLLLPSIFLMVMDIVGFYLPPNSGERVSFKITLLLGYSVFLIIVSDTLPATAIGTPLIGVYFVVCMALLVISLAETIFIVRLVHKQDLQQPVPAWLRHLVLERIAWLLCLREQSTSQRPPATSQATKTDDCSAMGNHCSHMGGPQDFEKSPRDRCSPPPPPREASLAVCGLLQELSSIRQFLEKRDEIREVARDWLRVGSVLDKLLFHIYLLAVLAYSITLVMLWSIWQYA

[4] = target: 5-hydroxytryptamine receptor 2C (Homo sapiens, UniProt P28335); assay: Displacement of [3H]Mesulergine from human recombinant 5-HT2C receptor expressed in HEK cells after 90 mins by scintillation counting analysis; format: cell-based, HEK293
[5] = target: 5-hydroxytryptamine receptor 2B (Homo sapiens, UniProt P41595); assay: Displacement of [3H]LSD from human recombinant 5-HT2B receptor expressed in HEK cells after 90 mins by scintillation counting analysis; format: cell-based, HEK293
[6] = target: 5-hydroxytryptamine receptor 2A (Homo sapiens, UniProt P28223); assay: Displacement of [3H]Ketanserin from human recombinant 5-HT2A receptor expressed in HEK cells after 90 mins by scintillation counting analysis; format: cell-based, HEK293
[7] = target: T2, 5-hydroxytryptamine receptor 3A (Mus musculus, UniProt P23979); assay: Antagonist activity at mouse 5-HT3A receptor expressed in Xenopus oocytes assessed as reduction of 5HT-induced current by two-electrode voltage clamp technique; format: cell-based, Oocyte
T2 sequence (P23979 whole entry): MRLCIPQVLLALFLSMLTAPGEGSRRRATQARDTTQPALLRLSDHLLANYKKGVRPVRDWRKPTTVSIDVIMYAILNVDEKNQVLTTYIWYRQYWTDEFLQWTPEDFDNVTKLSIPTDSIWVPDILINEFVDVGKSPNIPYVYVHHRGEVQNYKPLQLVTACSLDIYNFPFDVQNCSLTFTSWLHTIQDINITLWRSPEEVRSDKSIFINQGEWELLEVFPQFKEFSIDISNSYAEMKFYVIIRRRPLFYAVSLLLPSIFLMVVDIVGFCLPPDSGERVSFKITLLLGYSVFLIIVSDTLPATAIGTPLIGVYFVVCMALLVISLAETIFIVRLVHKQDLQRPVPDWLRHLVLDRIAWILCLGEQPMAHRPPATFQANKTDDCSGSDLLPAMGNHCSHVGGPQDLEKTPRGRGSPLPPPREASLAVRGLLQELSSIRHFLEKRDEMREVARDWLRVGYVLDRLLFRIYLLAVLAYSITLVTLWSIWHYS

[8] = target: T2, 5-hydroxytryptamine receptor 3A; assay: Displacement of [3H]LY278584 from mouse 5-HT3A receptor
[9] = target: 5-hydroxytryptamine receptor 1D (Homo sapiens, UniProt P28221); assay: Displacement of [3H]5-CT from human recombinant 5-HT1D receptor expressed in HEK cells after 90 mins by scintillation counting analysis; format: cell-based, HEK293
[10] = target: T1, 5-hydroxytryptamine receptor 3A; assay: Displacement of [3H]GR65630 from 5-HT3 receptor (unknown origin) expressed in mouse/rat NG108-15 cells after 30 mins by liquid scintillation counting analysis; format: cell-based
Mus musculus [11] = assay: Toxicity in ICR mouse assessed as total movement distance at 1 to 3 mg/kg, ip after 15 to 45 mins by locomotor activity assay relative to vehicle-treated control; format: organism-based; design: route intraperitoneal; settings: in vivo
Mus musculus [12] = assay: Toxicity in ICR mouse assessed as total movement time at 1 to 3 mg/kg, ip after 15 to 45 mins by locomotor activity assay relative to vehicle-treated control; format: organism-based; design: route intraperitoneal; settings: in vivo
Mus musculus [13] = assay: Antidepressant activity in ip dosed ICR mouse assessed as immobility time by tail suspension test; format: functional
[14] = Lipophilicity, log P of the compound by HPLC analysis; format: physicochemical
Translocator protein = Translocator protein (Rattus norvegicus, UniProt P16257); assay: Displacement of [3H]PK11195 from PBR in rat brain after 90 mins by scintillation counting analysis; format: tissue-based
[15] = target: Sodium-dependent serotonin transporter (Homo sapiens, UniProt P31645); assay: Displacement of [3H]cfitalopramfrom human recombinant serotonin transporter expressed in HEK cells after 90 mins by scintillation counting analysis; format: cell-based, HEK293
Mu-type opioid receptor = Mu-type opioid receptor (Homo sapiens, UniProt P35372); assay: Displacement of [3H]DAMGO from human recombinant mu opioid receptor expressed in HEK cells after 90 mins by scintillation counting analysis; format: cell-based, HEK293
[16] = target: Muscarinic acetylcholine receptor M5 (Homo sapiens, UniProt P08912); assay: Binding affinity to human recombinant muscarinic M5 receptor expressed in CHO cells after 90 mins by radioligand displacement assay; format: cell-based
[17] = target: Muscarinic acetylcholine receptor M4 (Homo sapiens, UniProt P08173); assay: Binding affinity to human recombinant muscarinic M4 receptor expressed in CHO cells after 90 mins by radioligand displacement assay; format: cell-based
[18] = target: Muscarinic acetylcholine receptor M2 (Homo sapiens, UniProt P08172); assay: Binding affinity to human recombinant muscarinic M2 receptor expressed in CHO cells after 90 mins by radioligand displacement assay; format: cell-based
[19] = target: Muscarinic acetylcholine receptor M3 (Homo sapiens, UniProt P20309); assay: Binding affinity to human recombinant muscarinic M3 receptor expressed in CHO cells after 90 mins by radioligand displacement assay; format: cell-based
[20] = target: Muscarinic acetylcholine receptor M1 (Homo sapiens, UniProt P11229); assay: Binding affinity to human recombinant muscarinic M1 receptor expressed in CHO cells after 90 mins by radioligand displacement assay; format: cell-based
[21] = target: Kappa-type opioid receptor (Homo sapiens, UniProt P41145); assay: Displacement of [3H]U69593 from kappa opioid receptor (unknown origin) expressed in HEK cells after 90 mins by scintillation counting analysis; format: cell-based, HEK293
Histamine H3 receptor = Histamine H3 receptor (Homo sapiens, UniProt Q9Y5N1); assay: Displacement of [3H]-alpha-methylhistamine from human recombinant histamine H3 receptor expressed in HEK cells after 90 mins by scintillation counting analysis; format: cell-based, HEK293
Histamine H1 receptor = Histamine H1 receptor (Homo sapiens, UniProt P35367); assay: Displacement of [3H]Pyrilamine from human recombinant histamine H1 receptor expressed in HEK cells after 90 mins by scintillation counting analysis; format: cell-based, HEK293
[22] = Displacement of [3H]Muscimol from GABAA in rat brain after 90 mins by scintillation counting analysis; format: tissue-based
[23] = target: Delta-type opioid receptor (Homo sapiens, UniProt P41143); assay: Displacement of [3H]DADLE from human recombinant delta opioid receptor expressed in HEK cells after 90 mins by scintillation counting analysis; format: cell-based, HEK293
[24] = target: Sodium-dependent dopamine transporter (Homo sapiens, UniProt Q01959); assay: Displacement of [3H]WIN35428 from human recombinant sodium-dependent dopamine transporter expressed in HEK cells after 90 mins by scintillation counting analysis; format: cell-based, HEK293
Sequence of Sodium-dependent dopamine transporter (Q01959 whole entry): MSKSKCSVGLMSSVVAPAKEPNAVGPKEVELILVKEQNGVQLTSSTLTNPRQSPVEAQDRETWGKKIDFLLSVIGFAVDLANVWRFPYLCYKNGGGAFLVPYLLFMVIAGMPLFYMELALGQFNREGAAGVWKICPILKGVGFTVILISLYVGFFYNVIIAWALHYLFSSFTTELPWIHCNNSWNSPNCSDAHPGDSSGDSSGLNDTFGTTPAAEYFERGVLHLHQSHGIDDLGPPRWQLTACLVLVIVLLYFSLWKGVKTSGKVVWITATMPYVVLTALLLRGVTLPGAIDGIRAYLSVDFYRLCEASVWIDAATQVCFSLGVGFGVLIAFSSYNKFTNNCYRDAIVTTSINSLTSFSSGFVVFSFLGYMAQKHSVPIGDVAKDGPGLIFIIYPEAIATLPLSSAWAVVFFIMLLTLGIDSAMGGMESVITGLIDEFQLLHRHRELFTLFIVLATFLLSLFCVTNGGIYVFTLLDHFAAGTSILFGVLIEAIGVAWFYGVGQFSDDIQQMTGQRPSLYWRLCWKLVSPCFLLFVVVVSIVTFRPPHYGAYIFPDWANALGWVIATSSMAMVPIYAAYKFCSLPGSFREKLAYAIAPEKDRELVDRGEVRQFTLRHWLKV

Sequence of Histamine H1 receptor (P35367 whole entry): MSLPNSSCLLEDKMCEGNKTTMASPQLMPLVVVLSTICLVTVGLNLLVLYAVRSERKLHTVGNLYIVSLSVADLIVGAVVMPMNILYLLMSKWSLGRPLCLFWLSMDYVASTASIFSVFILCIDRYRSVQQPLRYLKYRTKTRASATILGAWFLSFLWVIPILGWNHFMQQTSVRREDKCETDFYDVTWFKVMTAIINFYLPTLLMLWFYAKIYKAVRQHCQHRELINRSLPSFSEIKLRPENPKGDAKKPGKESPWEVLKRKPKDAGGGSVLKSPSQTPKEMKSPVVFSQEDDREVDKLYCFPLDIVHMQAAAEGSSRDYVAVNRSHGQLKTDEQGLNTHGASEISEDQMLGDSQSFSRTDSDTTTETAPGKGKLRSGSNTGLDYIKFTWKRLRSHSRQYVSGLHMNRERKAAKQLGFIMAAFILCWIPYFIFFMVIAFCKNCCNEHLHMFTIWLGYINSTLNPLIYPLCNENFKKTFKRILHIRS
Sequence of Histamine H3 receptor (Q9Y5N1 whole entry): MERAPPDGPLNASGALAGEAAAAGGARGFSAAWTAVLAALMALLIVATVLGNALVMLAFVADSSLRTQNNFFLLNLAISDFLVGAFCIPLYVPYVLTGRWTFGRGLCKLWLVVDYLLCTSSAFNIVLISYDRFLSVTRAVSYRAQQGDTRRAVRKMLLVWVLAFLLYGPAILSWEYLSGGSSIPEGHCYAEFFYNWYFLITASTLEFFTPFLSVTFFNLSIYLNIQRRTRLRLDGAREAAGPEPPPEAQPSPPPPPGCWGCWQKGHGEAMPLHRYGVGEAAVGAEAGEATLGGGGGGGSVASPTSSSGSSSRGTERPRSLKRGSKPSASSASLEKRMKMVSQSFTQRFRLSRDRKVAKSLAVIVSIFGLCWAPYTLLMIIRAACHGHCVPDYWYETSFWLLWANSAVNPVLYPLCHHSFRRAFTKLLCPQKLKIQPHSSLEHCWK
Sequence of 5-hydroxytryptamine receptor 2C (P28335 whole entry): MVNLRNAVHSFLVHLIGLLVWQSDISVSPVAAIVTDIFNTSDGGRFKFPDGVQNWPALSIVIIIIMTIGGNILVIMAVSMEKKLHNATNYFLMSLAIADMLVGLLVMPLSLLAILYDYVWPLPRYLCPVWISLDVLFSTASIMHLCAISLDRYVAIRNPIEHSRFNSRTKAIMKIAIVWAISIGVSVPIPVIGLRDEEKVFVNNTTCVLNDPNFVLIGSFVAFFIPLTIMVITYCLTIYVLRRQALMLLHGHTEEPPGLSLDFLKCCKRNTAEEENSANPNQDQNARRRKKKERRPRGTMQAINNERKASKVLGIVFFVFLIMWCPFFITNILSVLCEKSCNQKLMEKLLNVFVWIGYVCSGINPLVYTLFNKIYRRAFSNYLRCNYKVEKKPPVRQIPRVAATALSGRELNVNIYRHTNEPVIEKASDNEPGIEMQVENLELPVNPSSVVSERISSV
Sequence of Muscarinic acetylcholine receptor M1 (P11229 whole entry): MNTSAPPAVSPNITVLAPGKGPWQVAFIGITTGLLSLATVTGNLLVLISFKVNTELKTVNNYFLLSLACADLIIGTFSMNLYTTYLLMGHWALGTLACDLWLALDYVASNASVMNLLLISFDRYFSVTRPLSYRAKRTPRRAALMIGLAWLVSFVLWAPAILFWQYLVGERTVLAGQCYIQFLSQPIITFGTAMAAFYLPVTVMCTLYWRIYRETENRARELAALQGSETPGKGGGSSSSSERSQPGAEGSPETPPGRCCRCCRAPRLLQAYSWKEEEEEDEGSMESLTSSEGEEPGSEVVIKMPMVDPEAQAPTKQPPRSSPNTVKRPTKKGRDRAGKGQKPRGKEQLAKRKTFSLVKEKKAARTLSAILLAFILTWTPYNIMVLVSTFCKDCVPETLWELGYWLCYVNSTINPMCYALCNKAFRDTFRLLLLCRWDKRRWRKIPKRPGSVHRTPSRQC
Sequence of Translocator protein (P16257 whole entry, looked up): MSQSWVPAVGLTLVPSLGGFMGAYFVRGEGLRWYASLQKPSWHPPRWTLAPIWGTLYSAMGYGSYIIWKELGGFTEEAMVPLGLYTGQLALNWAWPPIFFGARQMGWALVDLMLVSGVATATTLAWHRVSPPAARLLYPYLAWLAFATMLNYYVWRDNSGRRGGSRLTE
Sequence of 5-hydroxytryptamine receptor 1D (P28221 whole entry): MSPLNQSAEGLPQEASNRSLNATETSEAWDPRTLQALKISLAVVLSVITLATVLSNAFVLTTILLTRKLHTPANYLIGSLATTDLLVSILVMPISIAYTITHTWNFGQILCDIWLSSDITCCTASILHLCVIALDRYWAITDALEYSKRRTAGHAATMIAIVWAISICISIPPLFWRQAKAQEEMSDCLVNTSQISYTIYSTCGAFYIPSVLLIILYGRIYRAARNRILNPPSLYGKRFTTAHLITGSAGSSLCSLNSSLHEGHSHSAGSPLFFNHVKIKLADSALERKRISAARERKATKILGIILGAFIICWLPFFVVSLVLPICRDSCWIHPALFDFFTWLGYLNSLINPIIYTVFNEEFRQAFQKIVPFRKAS
Sequence of Mu-type opioid receptor (P35372 whole entry): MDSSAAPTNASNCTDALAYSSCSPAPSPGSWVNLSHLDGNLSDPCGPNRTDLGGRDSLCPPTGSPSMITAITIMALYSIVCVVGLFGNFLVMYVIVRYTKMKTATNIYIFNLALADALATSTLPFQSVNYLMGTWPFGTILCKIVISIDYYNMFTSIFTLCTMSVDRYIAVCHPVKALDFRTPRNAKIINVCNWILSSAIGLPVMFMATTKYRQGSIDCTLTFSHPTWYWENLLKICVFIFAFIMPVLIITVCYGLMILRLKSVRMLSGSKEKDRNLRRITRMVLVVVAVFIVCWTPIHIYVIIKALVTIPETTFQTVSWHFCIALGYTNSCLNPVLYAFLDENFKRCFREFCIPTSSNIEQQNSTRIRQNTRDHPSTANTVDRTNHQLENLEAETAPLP
Sequence of Muscarinic acetylcholine receptor M3 (P20309 whole entry): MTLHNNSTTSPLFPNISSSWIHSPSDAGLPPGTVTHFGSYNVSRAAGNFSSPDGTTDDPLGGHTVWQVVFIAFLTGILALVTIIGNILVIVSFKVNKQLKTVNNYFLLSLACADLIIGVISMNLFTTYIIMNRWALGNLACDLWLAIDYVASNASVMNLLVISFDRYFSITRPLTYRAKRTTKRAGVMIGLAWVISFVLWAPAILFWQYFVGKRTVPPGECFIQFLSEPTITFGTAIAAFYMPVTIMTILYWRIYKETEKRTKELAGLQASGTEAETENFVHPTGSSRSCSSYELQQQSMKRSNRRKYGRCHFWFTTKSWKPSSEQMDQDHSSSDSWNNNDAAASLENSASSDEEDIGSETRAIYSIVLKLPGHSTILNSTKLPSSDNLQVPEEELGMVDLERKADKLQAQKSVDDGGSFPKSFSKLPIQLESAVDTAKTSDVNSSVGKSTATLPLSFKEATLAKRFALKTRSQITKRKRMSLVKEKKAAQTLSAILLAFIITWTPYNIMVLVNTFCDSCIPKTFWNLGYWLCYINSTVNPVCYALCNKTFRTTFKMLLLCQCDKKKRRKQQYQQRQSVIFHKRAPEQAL
Sequence of 5-hydroxytryptamine receptor 2B (P41595 whole entry): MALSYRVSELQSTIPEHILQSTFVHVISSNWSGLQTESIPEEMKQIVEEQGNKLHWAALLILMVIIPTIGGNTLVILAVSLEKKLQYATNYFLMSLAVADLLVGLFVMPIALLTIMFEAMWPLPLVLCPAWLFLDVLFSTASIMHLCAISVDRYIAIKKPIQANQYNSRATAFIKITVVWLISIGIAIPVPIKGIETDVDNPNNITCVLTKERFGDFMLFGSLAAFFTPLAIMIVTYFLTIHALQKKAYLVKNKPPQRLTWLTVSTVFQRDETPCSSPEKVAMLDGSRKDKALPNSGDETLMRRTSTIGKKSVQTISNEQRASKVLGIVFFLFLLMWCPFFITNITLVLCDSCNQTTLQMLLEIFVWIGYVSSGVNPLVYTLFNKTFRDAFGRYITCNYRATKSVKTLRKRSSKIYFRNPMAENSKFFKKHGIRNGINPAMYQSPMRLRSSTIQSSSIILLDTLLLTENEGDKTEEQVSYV
Sequence of 5-hydroxytryptamine receptor 2A (P28223 whole entry): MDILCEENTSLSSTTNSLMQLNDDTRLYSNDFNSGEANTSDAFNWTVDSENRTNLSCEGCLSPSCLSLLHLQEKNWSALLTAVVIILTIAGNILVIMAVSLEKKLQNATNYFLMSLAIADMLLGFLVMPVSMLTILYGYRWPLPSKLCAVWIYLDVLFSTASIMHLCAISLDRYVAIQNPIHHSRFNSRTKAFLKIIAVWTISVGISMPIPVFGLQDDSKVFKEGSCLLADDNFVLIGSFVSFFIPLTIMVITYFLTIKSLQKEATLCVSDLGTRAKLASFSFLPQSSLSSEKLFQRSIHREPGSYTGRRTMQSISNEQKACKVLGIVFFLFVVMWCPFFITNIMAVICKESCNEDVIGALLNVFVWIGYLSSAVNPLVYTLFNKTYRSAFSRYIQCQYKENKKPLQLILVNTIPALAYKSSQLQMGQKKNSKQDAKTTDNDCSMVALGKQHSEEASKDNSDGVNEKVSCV

**Q.** Which Ki [1] does the source give for `Cl.NC1=Nc2ccc(Cl)cc2CN1` here?
**A.** 0.466 µM

**Q.** And the Ki [2]?
**A.** 1.16 µM

**Q.** And the Ki [3]?
**A.** 0.08 µM

**Q.** What about the Ki [4] of the same compound?
**A.** 0.644 µM

**Q.** And the Ki [5]?
**A.** 0.565 µM

**Q.** What about the Ki [6] of the same compound?
**A.** 1.32 µM

**Q.** And the IC50 [7]?
**A.** 0.26 µM

**Q.** What about the Ki [8] of the same compound?
**A.** 0.08 µM

**Q.** And the Ki [9]?
**A.** 0.684 µM

**Q.** What about the Ki [10] of the same compound?
**A.** 0.034 µM

**Q.** And the Activity (Mus musculus [11])?
**A.** Non-toxic

**Q.** And the Activity (Mus musculus [12])?
**A.** Non-toxic

**Q.** And the ED50 (Mus musculus [13])?
**A.** 0.23 mg/kg

**Q.** What about the logP [14] of the same compound?
**A.** 1.86

**Q.** What about the Ki (Translocator protein) of the same compound?
**A.** > 10 µM

**Q.** And the Ki [15]?
**A.** > 10 µM

**Q.** What about the Ki (Mu-type opioid receptor) of the same compound?
**A.** > 10 µM

**Q.** What about the Ki [16] of the same compound?
**A.** > 10 µM

**Q.** What about the Ki [17] of the same compound?
**A.** > 10 µM

**Q.** And the Ki [18]?
**A.** > 10 µM

**Q.** What about the Ki [19] of the same compound?
**A.** > 10 µM

**Q.** And the Ki [20]?
**A.** > 10 µM

**Q.** What about the Ki [21] of the same compound?
**A.** > 10 µM

**Q.** What about the Ki (Histamine H3 receptor) of the same compound?
**A.** > 10 µM

**Q.** And the Ki (Histamine H1 receptor)?
**A.** > 10 µM

**Q.** And the Ki [22]?
**A.** > 10 µM

**Q.** And the Ki [23]?
**A.** > 10 µM

**Q.** And the Ki [24]?
**A.** > 10 µM
